From US20070010397A1, “Safeners and their application” (priority 2003, published 2007)

Experiments:
[1] = tested on: wheat (variety: Norin No.61); test: Test for safening effect against phytotoxicity of herbicidal compounds against wheat; assay type: in vivo; conditions: for Phytotoxicity %: wheat seeds in dish, after 5 days; for Expected value E by Colby's equation (Phytotoxicity %): wheat
Procedure: Preparation of Test Solution
Carrier: Acetone 5 parts by weight
Surfactant: Benzyloxy polyglycol ether 1 part by weight
A prescribed amount of the test solution is prepared by diluting with water the formulation obtained by mixing the above-mentioned carrier and surfactant with 1 part by weight of the active compounds (safeners and herbicidal compounds).
Test Example 1: Test for Safening Effect against Phytotoxicity of Herbicidal Compounds against Wheat
Seeds of wheat (variety: Norin No.61) were sown on absorbent cotton in a dish, containing the previously prepared, diluted solution with the prescribed concentration of the test compounds, and grown in a climate chamber. After 5 days the degree of phytotoxicity, particularly bleaching state, was observed and evaluated in 0-100%.
100% =Complete bleaching or withering state
(§1) Test results were evaluated by Colby's equation. Colby's equation: [formula]
E: Expected value of phytotoxicity by mixing
X: Measured value of phytotoxicity by one active compound • Y: Measured value of phytotoxicity by the other active compound Table 1

[2] = tested on: paddy rice (variety: Nipponbare); test: Test for safening effect against phytotoxicity of herbicidal compounds against paddy rice; assay type: in vivo
Procedure: as §1
Test Example 2: Test for Safening Effect against Phytotoxicity of Herbicidal Compounds against Paddy Rice (Method)
Two seedlings of paddy rice (variety: Nipponbare) of 2.5 leaf stage were transplanted in a plastic pot under submerged conditions with a trnsplantation depth of 0 cm. A diluted solution with the prescribed concentration of the 4% granules of the compound No. I-1 and herbicidal compounds were applied on the water surface. Three weeks after the application the degree of phytotoxicity was observed and evaluated in 0-100%.
100%=Complete withering state

[3] = safener 10 ppm alone (H-1 0 ppm), 0% = no phytotoxicity, 100% = complete bleaching or withering
[4] = safener 50 ppm alone (H-1 0 ppm)

Row | SMILES | Phytotoxicity % ([1]; safener 10 ppm + H-1 10 ppm) [%] | Phytotoxicity % [1, 3] [%] | Phytotoxicity % ([1]; safener 50 ppm + H-1 10 ppm) [%] | Phytotoxicity % [1, 4] [%] | Expected value E by Colby's equation (Phytotoxicity %) ([1]; safener 10 ppm + H-1 10 ppm) [%] | Expected value E by Colby's equation (Phytotoxicity %) ([1]; safener 50 ppm + H-1 10 ppm) [%] | other results
1 | CS(=O)(=O)c1ccc(C(=O)C2=C(O)CCCC2=O)c(Cl)c1COCC1CCCO1 (stereo not drawn) [H-1] | – | – | – | – | – | – | Phytotoxicity % ([1]; H-1 10 ppm alone (safener 0 ppm)): 50%; Phytotoxicity % ([2]; paddy rice, three weeks after application, H-1 0.6 kg/ha + No. I-1 1 kg/ha): 10%; Phytotoxicity % ([2]; paddy rice, three weeks after application, H-1 0.6 kg/ha alone (No. I-1 0 kg/ha)): 30%; Expected value E by Colby's equation (Phytotoxicity %) ([2]; paddy rice, H-1 0.6 kg/ha + No. I-1 1 kg/ha): 30%
2 | COC(=O)c1ccccc1CS(=O)(=O)NC(=O)Nc1nc(OC)cc(OC)n1 [H-2, Bensuiliron-methyl] | – | – | – | – | – | – | Phytotoxicity % ([2]; in vivo): 40%
3 | Cc1ccc(NC(=O)c2snc(Cl)c2Cl)c(C)c1 [No. I-2] | 30 | 0 | 10 | 0 | 50 | 50 | –
4 | CCC(CC)c1ccc(NC(=O)c2snc(Cl)c2Cl)cc1 [No. I-5] | 30 | 0 | 10 | 0 | 50 | 50 | –
5 | N#Cc1ccccc1NC(=O)c1snc(Cl)c1Cl [No. I-1] | 20 | 0 | 20 | 0 | 50 | 50 | Phytotoxicity % ([2]; paddy rice 2.5 leaf stage, three weeks after application, No. I-1 (4% granules) 1 kg/ha alone, herbicide 0 kg/ha): 0%
6 | CCOC(=O)[C@@H](C)Oc1ccc(Oc2nc3ccc(Cl)cc3o2)cc1 [H-3, Fenoxaprop-P-ethyl] | – | – | – | – | – | – | Phytotoxicity % ([2]; paddy rice, three weeks after application, H-3 0.1 kg/ha + No. I-1 1 kg/ha): 40%; Phytotoxicity % ([2]; paddy rice, three weeks after application, H-3 0.1 kg/ha alone (No. I-1 0 kg/ha)): 70%; Expected value E by Colby's equation (Phytotoxicity %) ([2]; paddy rice, H-3 0.1 kg/ha + No. I-1 1 kg/ha): 70%
7 | CC(C)(C)CSCc1ccc(NC(=O)c2snc(Cl)c2Cl)cc1 [No. I-7] | 30 | 0 | 20 | 0 | 50 | 50 | –
8 | CCC(C)c1ccc(NC(=O)c2snc(Cl)c2Cl)cc1 (stereo not drawn) [No. I-4] | 10 | 0 | 5 | 0 | 50 | 50 | –
9 | CCN(CC)Cc1ccc(CNC(=O)c2snc(Cl)c2Cl)cc1 [No. I-6] | 15 | 0 | 15 | 0 | 50 | 50 | –
10 | CN(C)CNC(=O)c1snc(Cl)c1Cl [No. I-3] | 5 | 0 | 0 | 0 | 50 | 50 | –
